Values of other authors as cited in PubChem BioAssay AID1259409 (Chemical Carcinogenesis Research Information System (CCRIS), 2018).

Tested on: rodent chemically induced tumor inhibition, incidence and multiplicity
Experiment: CCRIS tumor inhibitor studies
Conditions: Route [Inhibitor]: ORAL, Promoter: NONE USED

## CC1=C(/C=C/C(C)=C/C=C/C(C)=C\C(=O)O)C(C)(C)CCC1
Carcinogen: N-(4-(5-NITRO-2-FURYL)-2-THIAZOLYL)FORMAMIDE, 24554-26-5, Dose [Inhibitor]: 120 MG/KG DIET DAILY STARTING 1 WK AFTER COMPLETION OF CARCINOGEN TREATMENT AND CONTINUING UNTIL END OF STUDY (STUDY DUR, Species: RAT, Strain/Sex: F344/FEMALE, Target Tissue: Type of Lesion: URINARY BLADDER: PAPILLOMA, Dose [Carcinogen]: 2 G/KG DIET DAILY FOR 10 WK
  tumour outcome (control, treated, inhibition, significance): 10/100 (10%), 12/100 (12%), -20%, p 0.655
Carcinogen: N-(4-(5-NITRO-2-FURYL)-2-THIAZOLYL)FORMAMIDE, 24554-26-5, Dose [Inhibitor]: 240 MG/KG DIET DAILY STARTING 1 WK AFTER COMPLETION OF CARCINOGEN TREATMENT AND CONTINUING UNTIL END OF STUDY (STUDY DUR, Species: RAT, Strain/Sex: F344/FEMALE, Target Tissue: Type of Lesion: URINARY BLADDER: CARCINOMA, Dose [Carcinogen]: 2 G/KG DIET DAILY FOR 10 WK
  tumour outcome (control, treated, inhibition, significance): 36/100 (36%), 47/100 (47%), -31%, p 0.024
Carcinogen: N-(4-(5-NITRO-2-FURYL)-2-THIAZOLYL)FORMAMIDE, 24554-26-5, Dose [Inhibitor]: 240 MG/KG DIET DAILY STARTING 1 WK AFTER COMPLETION OF CARCINOGEN TREATMENT AND CONTINUING UNTIL END OF STUDY (STUDY DUR, Species: RAT, Strain/Sex: F344/FEMALE, Target Tissue: Type of Lesion: URINARY BLADDER: PAPILLOMA, Dose [Carcinogen]: 2 G/KG DIET DAILY FOR 10 WK
  tumour outcome (control, treated, inhibition, significance): 10/100 (10%), 7/100 (7%), 30%, p 0.446
Carcinogen: N-BUTYL-N-(4-HYDROXYBUTYL)NITROSAMINE, 3817-11-6, Dose [Inhibitor]: 0.8 MMOL/KG DIET DAILY FOR 19 WK STARTING 7 D AFTER FINAL CARCINOGEN DOSE (STUDY DURATION: 6 MO), Species: RAT, Strain/Sex: F344/FEMALE, Target Tissue: Type of Lesion: URINARY BLADDER: TRANSITIONAL CELL CARCINOMA, Dose [Carcinogen]: 150 MG 2/WK FOR 6 WK
  tumour outcome (control, treated, inhibition, significance): 28/80 (35%), 7/40 (18%), 49%, p<0.05
Carcinogen: N-BUTYL-N-(4-HYDROXYBUTYL)NITROSAMINE, 3817-11-6, Dose [Inhibitor]: 0.8 MMOL/KG DIET DAILY FOR 19 WK STARTING 7 D AFTER FINAL CARCINOGEN DOSE (STUDY DURATION: 6 MO), Species: RAT, Strain/Sex: F344/MALE, Target Tissue: Type of Lesion: URINARY BLADDER: TRANSITIONAL CELL CARCINOMA, Dose [Carcinogen]: 200 MG 2/WK FOR 8 WK
  tumour outcome (control, treated, inhibition, significance): 55/60 (92%), 24/30 (80%), 13%, not significant
Carcinogen: N-BUTYL-N-(4-HYDROXYBUTYL)NITROSAMINE, 3817-11-6, Dose [Inhibitor]: 150 MG/G DIET DAILY STARTING 7 D AFTER THE LAST CARCINOGEN DOSE AND CONTINUING THROUGH THE END OF THE STUDY (STUDY DURAT, Species: MOUSE, Strain/Sex: B6D2F1/FEMALE, MALE, Target Tissue: Type of Lesion: URINARY BLADDER: TRANSITIONAL CELL CARCINOMA, Dose [Carcinogen]: 10 MG 2/WK FOR 9 WK
  tumour outcome (control, treated, inhibition, significance): 23/54 (43%), 19/55 (35%), 19%, not significant
Carcinogen: N-BUTYL-N-(4-HYDROXYBUTYL)NITROSAMINE, 3817-11-6, Dose [Inhibitor]: 150 MG/KG DIET DAILY STARTING 7 D AFTER THE LAST CARCINOGEN DOSE AND CONTINUING THROUGH THE END OF THE STUDY (STUDY DURA, Species: MOUSE, Strain/Sex: B6D2F1/FEMALE, MALE, Target Tissue: Type of Lesion: URINARY BLADDER: TRANSITIONAL CELL CARCINOMA, Dose [Carcinogen]: 5 MG 2/WK FOR 9 WK
  tumour outcome (control, treated, inhibition, significance): 29/71 (41%), 19/69 (28%), 32%, not significant
Carcinogen: N-BUTYL-N-(4-HYDROXYBUTYL)NITROSAMINE, 3817-11-6, Dose [Inhibitor]: 200 MG/G DIET DAILY STARTING 7 D AFTER THE LAST CARCINOGEN DOSE AND CONTINUING THROUGH THE END OF THE STUDY (STUDY DURAT, Species: MOUSE, Strain/Sex: B6D2F1/FEMALE, MALE, Target Tissue: Type of Lesion: URINARY BLADDER: TRANSITIONAL CELL CARCINOMA, Dose [Carcinogen]: 5 MG 2/WK FOR 9 WK
  tumour outcome (control, treated, inhibition, significance): 29/71 (41%), 17/71 (24%), 41%, p<0.05
Carcinogen: N-BUTYL-N-(4-HYDROXYBUTYL)NITROSAMINE, 3817-11-6, Dose [Inhibitor]: 200 MG/G DIET DAILY STARTING 7 D AFTER THE LAST CARCINOGEN DOSE AND CONTINUING THROUGH THE END OF THE STUDY (STUDY DURAT, Species: MOUSE, Strain/Sex: B6D2F1/FEMALE, MALE, Target Tissue: Type of Lesion: URINARY BLADDER: TRANSITIONAL CELL CARCINOMA, Dose [Carcinogen]: 10 MG 2/WK FOR 9 WK
  tumour outcome (control, treated, inhibition, significance): 23/54 (43%), 12/54 (22%), 49%, p<0.05
Carcinogen: N-BUTYL-N-(4-HYDROXYBUTYL)NITROSAMINE, 3817-11-6, Dose [Inhibitor]: 200 MG/KG DIET DAILY STARTING 7 D AFTER LAST CARCINOGEN DOSE AND CONTINUING THROUGH THE END OF STUDY (STUDY DURATION: 6, Species: MOUSE, Strain/Sex: C57BL/MALE, Target Tissue: Type of Lesion: URINARY BLADDER: NEOPLASM, Dose [Carcinogen]: 7.5 MG 2/WK FOR 6 WK
  tumour outcome (control, treated, inhibition, significance): 9/24 (38%), 1/19 (5%), 87%, p<0.05
